Values of other authors in US9040513B2, “Process for preparing platinum-carbene complexes” (CENTRE NATIONAL DE LA RECHERCHE SCIENTIFIQUE, priority 2010, dated 2015).

Biological target: integrin αvβ3 (Homo sapiens, UniProt P05106+P06756)
Conditions: background statement

Chain of integrin αvβ3 (P06756 31-889 limits assumed): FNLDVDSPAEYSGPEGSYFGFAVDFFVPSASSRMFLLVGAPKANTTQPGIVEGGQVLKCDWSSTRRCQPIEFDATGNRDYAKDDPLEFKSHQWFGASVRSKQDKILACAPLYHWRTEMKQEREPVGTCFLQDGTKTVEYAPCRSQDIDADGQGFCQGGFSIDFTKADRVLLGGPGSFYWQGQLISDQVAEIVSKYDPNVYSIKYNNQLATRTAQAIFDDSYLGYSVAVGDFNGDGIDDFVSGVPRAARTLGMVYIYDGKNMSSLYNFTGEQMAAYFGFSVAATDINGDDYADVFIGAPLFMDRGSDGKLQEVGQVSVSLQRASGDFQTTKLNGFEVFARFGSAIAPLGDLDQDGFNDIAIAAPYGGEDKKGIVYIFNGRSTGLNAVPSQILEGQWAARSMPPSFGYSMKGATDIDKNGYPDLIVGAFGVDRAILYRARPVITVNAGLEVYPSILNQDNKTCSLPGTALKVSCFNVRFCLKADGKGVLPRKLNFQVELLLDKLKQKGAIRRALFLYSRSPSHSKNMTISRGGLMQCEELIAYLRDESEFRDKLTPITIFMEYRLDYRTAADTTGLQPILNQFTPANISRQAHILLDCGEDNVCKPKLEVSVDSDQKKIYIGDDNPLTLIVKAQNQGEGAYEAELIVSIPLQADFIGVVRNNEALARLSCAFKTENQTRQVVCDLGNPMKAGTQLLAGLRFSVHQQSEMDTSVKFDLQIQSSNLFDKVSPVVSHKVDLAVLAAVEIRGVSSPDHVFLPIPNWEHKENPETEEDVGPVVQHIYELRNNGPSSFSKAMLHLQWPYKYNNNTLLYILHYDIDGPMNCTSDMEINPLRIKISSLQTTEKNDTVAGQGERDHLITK
Chain of integrin αvβ3 (P06756 891-1048 partner limits assumed): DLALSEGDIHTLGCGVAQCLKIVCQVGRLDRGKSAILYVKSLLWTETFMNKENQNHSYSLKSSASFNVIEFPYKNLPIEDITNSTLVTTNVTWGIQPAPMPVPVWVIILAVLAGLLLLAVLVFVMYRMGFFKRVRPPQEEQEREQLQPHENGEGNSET
Chain of integrin αvβ3 (P05106 27-788): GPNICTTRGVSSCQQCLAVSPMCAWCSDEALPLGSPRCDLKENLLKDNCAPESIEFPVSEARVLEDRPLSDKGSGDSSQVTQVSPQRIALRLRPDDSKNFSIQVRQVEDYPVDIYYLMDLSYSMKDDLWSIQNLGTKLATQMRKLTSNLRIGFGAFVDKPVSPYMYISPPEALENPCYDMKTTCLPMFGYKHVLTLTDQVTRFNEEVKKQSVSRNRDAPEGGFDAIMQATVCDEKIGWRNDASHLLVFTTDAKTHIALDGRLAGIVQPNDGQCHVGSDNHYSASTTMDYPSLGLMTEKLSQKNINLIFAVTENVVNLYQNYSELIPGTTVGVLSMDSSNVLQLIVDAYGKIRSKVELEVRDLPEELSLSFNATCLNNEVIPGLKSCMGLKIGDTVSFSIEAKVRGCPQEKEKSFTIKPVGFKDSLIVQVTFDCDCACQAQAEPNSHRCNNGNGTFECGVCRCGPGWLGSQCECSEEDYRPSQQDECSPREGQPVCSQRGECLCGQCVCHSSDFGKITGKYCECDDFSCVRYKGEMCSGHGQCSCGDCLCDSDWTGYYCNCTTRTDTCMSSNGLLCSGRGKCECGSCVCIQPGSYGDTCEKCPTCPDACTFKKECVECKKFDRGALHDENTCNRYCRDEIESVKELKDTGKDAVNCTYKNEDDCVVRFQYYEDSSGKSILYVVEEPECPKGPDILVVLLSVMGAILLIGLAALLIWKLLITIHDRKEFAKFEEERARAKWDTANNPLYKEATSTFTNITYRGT

affinity for integrin αvβ3: high affinity
Substance: cyclo(RGDfK)
